According to patent US20210403415A1, “COMPOUNDS AND METHODS TO ATTENUATE TUMOR PROGRESSION AND METASTASIS” (THE TRUSTEES OF INDIANA UNIVERSITY, priority 2018, published 2021):
Where two headings read alike, the source gives them in different places. Values belong to the compound of their own block, whether it stands above or below them.

Columns and labels:
[1] = biological target: T1, TEAD2 binding to Yap1 (Homo sapiens, UniProt Q15562); assay: Fluorescence polarization, HIS-TEAD2 with FAM-Yap60-99 peptide; settings: 24 h at 4° C.
T1 construct: TEAD2 (217-447) was expressed as N-terminal HIS-fusion protein; made in house; host or cells: E. coli BL-21 (DE3), pET-28a
Method: (§1) GST-TEAD4, GST-TEAD4 Cys367Ser mutant or HIS-TEAD2 interaction with Yap1 was investigated using a fluorescently-labeled peptide (FAM-Yap60-99), consisting of FAM-labeled TEAD-binding peptide fragment of Yap1 (FAM-[…] TVPMCLRKLPASFCKPP), which has a disulfide bridge (American Peptide, Sunnyvale, Calif.). Addition of FAM-Yap60-99 to the TEAD was followed by measurement of changes in polarization. 40 μL of 125 nM GST-TEAD4 WT or GST-TEAD4 Cys367Ser in assay buffer (PBS with 0.01% v/v Triton-X100) or 40 μL of 64 nM HIS-TEAD2 was added to a 384-well black polystyrene plate (Cat. No. 262260; Nunc, Roskilde, Denmark) and incubated with 5 μL of […] serially diluted compounds in assay buffer supplemented with 20% v/v DMSO for 24 h at 4° C. Finally, 5 μL of 160 nM FAM-Yap60-99 peptide was added, the plate centrifuged, and the polarization was measured on an Envision Multilabel Plate Reader (PerkinElmer, Waltham, Mass.) using a filter set with excitation and emission wavelengths of 485 and 535 nm, respectively. Percent inhibition was calculated as relative to a minimum inhibition control, which is without compound, and a maximum inhibition control, which is without a TEAD.

[2] = biological target: T2, TEAD4.Yap1 interaction (Homo sapiens, UniProt Q15561); assay: Fluorescence polarization, GST-TEAD4 with FAM-Yap60-99 peptide; format: binding; parameters: TEAD4 (217-434), TEAD4 (217-434) Cys367Ser mutant and Yap1 (Full-length) were expressed as GST-fusion proteins; made in house; host or cells: E. coli BL-21 (DE3), pGEX-6P-1; settings: for inhibition / maximum inhibition of TEAD4.Yap1 interaction: 24 h incubation at 4° C.; for t1/2^∞ (half-life of inactivation): corresponding to kinact; for inhibition of TEAD4.Yap1 interaction: FP assay, 24 h at 4° C.
Method: as §1
For the determination of the inhibition efficiency kinact/K1, the protein compound incubation time was varied between […], prior to the addition of the FAM-Yap60-99 peptide and fluorescence polarization measurements. The progressive decrease in TEAD activities were plotted against time for all 10 concentrations ([…]) of the compounds and the observed rate of inhibition (kobs) was calculated by fitting a simple exponential function.
The observed rate of inhibition was then plotted against the concentration of the compound and a […] function kobs=kinact[Inhibitor]/K1+[Inhibitor] was fitted to determine the kinact and K1 values.

[3] = biological target: T3, TEAD4 (Homo sapiens, UniProt Q15561); assay: Whole protein ESI mass spectrometry, adduct formation; format: binding; parameters: TEAD4 (217-434), TEAD4 (217-434) Cys367Ser mutant and Yap1 (Full-length) were expressed as GST-fusion proteins; GST (N, cleaved yes); made in house; host or cells: E. coli BL-21 (DE3), pGEX-6P-1; settings: for covalent adduct formation with TEAD4 / adduct with TEAD4: 10 μM TEAD4, 200 μM compound, 24 h at 4° C.
Method: (§2) The samples were centrifuged at 20,000×g for […] to remove precipitants before being injected into an empty column on an Agilent 1200 liquid chromatography system (Agilent, Santa Clara, Calif.), using 80% Buffer A (H2O, 5 mM NH4OAc) and 20% Buffer B (ACN, 5 mM NH4OAc), and the masses were detected on an Agilent 6520 Accurate Mass Q-TOF.
It was determined whether a covalent bond formed between inventive compounds and TEAD4. […] The covalent adduct formation by compound 2 was relatively fast (FIG. 3G), reaching nearly 100% adduct formation after 30 min incubation with TEAD4. Because the rate of inhibition developed over a longer timescale (FIG. 3C), compound 2 is proposed to induce a slow conformational change in TEAD4 that prevents its interaction with Yap1. To rule out the possibility that compound 2 induces slow aggregation of TEAD4, and not the proposed slow conformational change, GST-TEAD4 was incubated with DMSO compound 2 for 24 h at 4° C., followed by injection into an SEC column (FIG. 3H). […] A slight increase in dimer formation for the TEAD4 sample incubated with compound 2 occurred compared to the sample incubated with DMSO. […] Furthermore, it is highly unlikely that Cys-367 oxidation was responsible for the lack of 100% inhibition at longer times since it has been shown that covalent bond formation is rapid and complete within less than an hour.
Target sequence in this assay (Q15561 217-434): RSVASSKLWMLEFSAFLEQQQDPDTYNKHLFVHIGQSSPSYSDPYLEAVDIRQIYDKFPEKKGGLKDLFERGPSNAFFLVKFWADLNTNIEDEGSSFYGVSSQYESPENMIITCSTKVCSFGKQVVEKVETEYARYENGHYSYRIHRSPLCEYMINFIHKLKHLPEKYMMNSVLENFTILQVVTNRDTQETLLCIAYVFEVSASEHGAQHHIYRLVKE

[4] = biological target: T2, TEAD4.Yap1 interaction; assay: Fluorescence polarization, GST-TEAD4 with FAM-Yap60-99 peptide; format: binding; parameters: TEAD4 (217-434), TEAD4 (217-434) Cys367Ser mutant and Yap1 (Full-length) were expressed as GST-fusion proteins; made in house; host or cells: E. coli BL-21 (DE3), pGEX-6P-1; settings: 0.5, 6, 24, 48 h incubation at 4° C., 0.1-100 μM
[5] = biological target: T3, TEAD4; assay: Covalent streptavidin pull down of myc-TEAD4 from HEK293 cell lysates; format: cell-based; parameters: expressed in transfected cells; host or cells: HEK293; settings: added to cell lysates
Method: HEK293 cells transfected with the myc-TEAD4 construct were grown for 48 h and then treated with DMSO or with 25 μM of compound 2 for an additional 48 h. Cells were then harvested in lysis buffer (50 mM Tris-HCl, pH 7.3, 150 mM NaCl, 0.5 mM EDTA, 1% Triton X-100, PhosSTOP phosphatase inhibitor cocktail, and EDTA-free protease inhibitors cocktail). Cell lysates containing 2 mg of protein were incubated with the indicated compounds or DMSO for 24 h. Extracts were then incubated with Dynabeads M-280 Streptavidin (Sigma-Aldrich) for 2 h at 4° C. Dynabeads were then washed and bound proteins were denatured and eluted according to the manufacturer's instructions. Relative levels of myc-TEAD4 from each complex were measured by immunoblot analysis with the anti-c-Myc antibody (1:5,000, Sigma-Aldrich).
Target sequence in this assay (Q15561 whole entry, the tested form may be a part): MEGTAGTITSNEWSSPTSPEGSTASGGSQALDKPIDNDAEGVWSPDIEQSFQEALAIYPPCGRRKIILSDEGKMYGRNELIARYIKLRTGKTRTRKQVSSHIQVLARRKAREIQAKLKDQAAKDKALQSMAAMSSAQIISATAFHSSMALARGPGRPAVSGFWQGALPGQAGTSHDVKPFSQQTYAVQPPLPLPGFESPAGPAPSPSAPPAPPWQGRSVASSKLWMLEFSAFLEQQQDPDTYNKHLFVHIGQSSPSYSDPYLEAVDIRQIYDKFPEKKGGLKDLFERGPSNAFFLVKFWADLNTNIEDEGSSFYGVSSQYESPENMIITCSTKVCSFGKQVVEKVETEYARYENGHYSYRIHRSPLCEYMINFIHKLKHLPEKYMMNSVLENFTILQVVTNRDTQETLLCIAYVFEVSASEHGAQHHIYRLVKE

[6] = test system: patient-derived GBM43 glioblastoma spheroids; assay: GBM43 spheroid viability (Alamar blue); format: cell-based, human; settings: Homo sapiens; three-dimensional spheroids; read-out: EC50, inhibition of GBM43 spheroid growth
Method: Early-passage GBM43 cells were cultured in ultralow adherence plates (Corning Inc.) at 1 to 2×10^3 cells/mL in DMEM supplemented with 1% […] (Invitrogen), 2% B27 (Invitrogen), 25 ng/mL epidermal growth factor (EGF, 25 ng/mL fibroblast growth factor (FGF) (R&D Systems, Inc.), […], 2 ng/mL platelet growth factor, and 100 ng/mL each of penicillin and streptomycin (Invitrogen Inc.). Individual cells were recovered from spheres by incubation with Accutase (Sigma-Aldrich) for 10-15 minutes. Cells (50-100/well) were then seeded in fresh sphere-forming media in 96-well plates. After 2-3 days, Neurospheres containing 6 to 8 cells were treated with compounds 1, 2, and 5.
HEK-293 were cultured in DMEM with glutamine (Cellgro, Manassas, Va.) supplemented with 10% FBS and 1% penicillin/streptomycin in a 5% CO2 atmosphere at 37° C. Tumors were expanded by passage in the flank of NOD/SCIDγnull mice. To generate GBM43 cell lines, tumors were harvested, disaggregated, and maintained in 2.5% FBS for 14 days on Matrigel-coated plates (BD Biosciences) to remove murine fibroblasts. In-vitro GBM43 cell lines were propagated in DMEM with 10% FBS for no more than 7 passages. Cell line identity was confirmed by DNA fingerprint analysis (IDEXX BioResearch) for species and baseline short-tandem repeat analysis testing. GBM43 spheroids were generated by plating early-passage cells at 2.5×10^4 cells per well in 96-well ultralow attachment plates (Corning Inc.) in DMEM/F12 (1:1; GIBCO) supplemented with 2% B27 supplement (GIBCO), 20 ng/mL epidermal growth factor (EGF), and 20 ng/mL fibroblast growth factor (FGF) (Peprotech) for 2 days. The spheroids were then treated with compounds 1, 2, and 5 and growth analyzed by Alamar blue staining.

[7] = biological target: T4, TEAD4 Cys367Ser mutant (Homo sapiens, UniProt Q15561, C367S); assay: Whole protein ESI mass spectrometry, adduct formation with mutant; format: binding; settings: 5 μM mutant, 12.5, 50, 200 μM at 4° C., 24 h
T4 construct: TEAD4 (217-434) Cys367Ser mutant and Yap1 (Full-length) were expressed as GST-fusion proteins; made in house; host or cells: E. coli BL-21 (DE3), pGEX-6P-1
Method: as §2
FIG. 4A illustrates analysis by ESI mass spectrometry after 10 μM TEAD4 Cys367Ser mutant was incubated with 200 μM compound for 24 h at 4° C. FIG. 4B illustrates measurement of fluorescence polarization due to binding when increasing concentration of TEAD4 Cys367Ser mutant was mixed with 16 nM FAM-Yap60-99 peptide (mean±s.d.; n=3). FIG. 4C illustrates measurement of fluorescence polarization due to binding when TEAD4 Cys367Ser mutant was incubated with increasing concentration of compounds for 24 h at 4° C. followed by addition of FAM-Yap60-99 (mean±s.d.; n=3).

[8] = as tested described herein, read-out: EC50 in the EC50 assay

T2 sequence (Q15561 217-434): as the sequence (Q15561 217-434) above
T1 sequence (Q15562 217-447): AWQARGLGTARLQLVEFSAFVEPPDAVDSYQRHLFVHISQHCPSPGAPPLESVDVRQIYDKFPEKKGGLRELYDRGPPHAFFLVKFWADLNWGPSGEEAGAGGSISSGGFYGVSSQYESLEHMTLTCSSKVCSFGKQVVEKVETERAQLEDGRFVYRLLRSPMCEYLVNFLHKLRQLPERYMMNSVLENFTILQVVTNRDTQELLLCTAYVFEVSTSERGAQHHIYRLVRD
T4 sequence (Q15561 217-434 C367S): as the sequence (Q15561 217-434) above, with C151S counted along it

SMILES: COCCOc1cccc(Nc2ccccc2C(=O)CCl)c1 [Compound 4, 2-chloro-1-(2-((3-(2-methoxyethoxy)phenyl)amino)phenyl)ethanone]
- inhibition of TEAD2 binding to Yap1 [1]: much weaker inhibitors of TEAD2 compared to TEAD4
- inhibition / maximum inhibition of TEAD4.Yap1 interaction [2]: 31%
- apparent EC50, inhibition of TEAD4.Yap1 protein-protein interaction ([2]; 24 h incubation with TEAD4 at 4° C.): substantially lower (nearly an order of magnitude) than its parent compound 2
- t1/2^∞ (half-life of inactivation) [2]: 67.3 h
- covalent adduct formation with TEAD4 [3]: formed single adducts
- kinact ([4]; read-out: maximum rate of inactivation (kinact) (converted)): 2.78e-06 s⁻¹

SMILES: O=C(CCl)c1ccccc1Nc1ccc(-c2cccs2)cc1 [Compound 7, 2-chloro-1-(2-((4-(thiophen-2-yl)phenyl)amino)phenyl)ethanone]
- inhibition of TEAD4.Yap1 interaction [2]: lack of TEAD4 inhibition
- adduct with TEAD4 [3]: 100%
- covalent adduct formation with TEAD4 [3]: formed single adducts

SMILES: O=C(CCCCC1SCC2NC(=O)NC21)NCCOCCOCCCCCOc1cccc(Nc2ccccc2C(=O)CCl)c1 (stereo not shown) [Compound 9, N-(2-(2-((5-(3-((2-(2-chloroacetyl)phenyl)amino)phenoxy)pentyl)oxy)ethoxy)ethyl)-5-(2-oxohexahydro-1H-thieno[3,4-d]imidazol-4-yl)pentanamide]
- TEAD4 in streptavidin pull-down, immunoblot [5]: TEAD4 was specifically detected

SMILES: Cn1nnc2c(C(N)=O)ncn2c1=O [Temozolomide, temozolomide, reference compound]
- EC50 [6]: 244 ± 24 µM

SMILES: NC(=O)CI [iodoacetamide, reference compound]
- modification of TEAD4 Cys367Ser mutant [7]: no modification of the protein, except for a small adduct that was detected only at 200 μM
- inhibition of TEAD4.Yap1 interaction [2]: unable to inhibit
- adduct formation with TEAD4 ([3]; 5 μM TEAD4, 12.5, 50, 200 μM at 4° C., after 6 h): modified by a single adduct

Second part, led by results:

- inhibition / maximum inhibition of TEAD4.Yap1 interaction [2]: 51%
- EC50 ([2]; 24 h incubation with TEAD4 at 4° C., read-out: apparent EC50, inhibition of TEAD4.Yap1 protein-protein interaction): 2.3 ± 0.8 µM
- t1/2^∞ (half-life of inactivation) [2]: 20 h
- covalent adduct formation with TEAD4 [3]: formed single adducts
- kinact ([4]; read-out: rate of inactivation kinact (converted)): 9.44e-06 s⁻¹
SMILES: COc1ccc(C(=O)CCl)c(Nc2cccc(C(F)(F)F)c2)c1 [Compound 6, 2-chloro-1-(4-methoxy-2-((3-(trifluoromethyl)phenyl)amino)phenyl)ethanone]
- inhibition of TEAD2 binding to Yap1 [1]: much weaker inhibitors of TEAD2 compared to TEAD4

- inhibition of TEAD4.Yap1 interaction [2]: lack of TEAD4 inhibition
- adduct with TEAD4 [3]: 100%
- covalent adduct formation with TEAD4 [3]: formed single adducts
SMILES: O=C(CCl)c1ccccc1Nc1cccc(-c2cccs2)c1 [Compound 8, 2-chloro-1-(2-((3-(thiophen-2-yl)phenyl)amino)phenyl)ethanone]

- inhibition of TEAD4.Yap1 interaction [2]: minimal inhibition
SMILES: O=C(CF)c1ccccc1Nc1cccc(C(F)(F)F)c1 [Example 10, 2-fluoro-1-(2-((3-(trifluoromethyl)phenyl)amino)phenyl) ethanone]

- max (inhibition) in the EC50 assay ([2]; as tested described herein): 50%
- EC50 [2, 8]: 11.7 µM
SMILES: O=C(CCl)Nc1ccccc1Nc1cccc(C(F)(F)F)c1 [Example 11, 2-chloro-N-(2-((3-(trifluoromethyl)phenyl)amino)phenyl) acetamide]

- max (inhibition) in the EC50 assay ([2]; as tested described herein): 23%
- EC50 [2, 8]: 13.7 µM
SMILES: C=CC(=O)Nc1ccccc1Nc1cccc(C(F)(F)F)c1 [Example 12]
